How the values were obtained:
Type in all cases: in vivo
[1] = Plasma glucose and insulin in obese ob/ob mice (10 to 12-weeks old), 6 weeks
Description: Plasma glucose was measured on an automatic analyser (Synchron LX20 from Beckman Coulter) with a commercial kit (kit n°472500 from Beckman).
Plasma insulin, adiponectin and leptin were measured by radioimmunoassay (RIA). Insulin was measured with the Insulin-CT kit from Cis Bio International (Gif-sur-Yvette, France), whereas plasma leptin and adiponectin were assessed with kits from Linco Research Inc. (St Charles, Mo.). Leptin was not measured in ob/ob mice since these animals are genetically leptin-deficient (Friedman J. M., Halaas J. L., 1998, Nature 395: 763-770). Results regarding insulin were expressed as recommended by kit manufacturer.
In obese ob/ob mice (10 to 12-weeks old) treated with 100 mg/kg/d of β-aminoisobutyric acid for 6 weeks and fasted for the last 48 hours, there was a trend toward lower plasma levels of glucose and insulin. Indeed, plasma glucose was 11.1±1.4 and 9.0±0.9 mmol/L, respectively in control ob/ob mice (n=6) and mice treated with β-aminoisobutyric acid (n=8). Plasma insulin was 37±19 and 24±6 μU/ml, respectively in control mice (n=4) and mice treated with β-aminoisobutyric acid (n=5). […] Indeed, insulin was 83±13 and 64±7 μU/ml, respectively in control mice (n=5) and mice treated with β-aminoisobutyric acid (n=5).

[2] = Plasma lipids in ob/ob mice, 6 weeks, 15 hours overnight fast; conditions: 100 mg/kg/day 6 weeks, fasted 15 hours
Description: (§1) Plasma lipids (triglycerides, total cholesterol, phospholipids) were measured on an automatic analyser (Hitachi 717®). The commercial kits used to assess triglycerides, total cholesterol and phospholipids on this analyser were all from bioMérieux (references 61238, 61219 and 61491, respectively). Plasma non esterified fatty acids (NEFA) were assessed by using a commercial kit (Wako, reference 994-75409). Hepatic and plasma lipids were performed at the end of six weeks of treatment in animals that have been fasted for 48 hours. Triglycerides and HDL-cholesterol were also assessed after 2 months (in the fed state) or after 4 months of treatment (after an overnight fast).
Plasma HDL-cholesterol and alanine aminotransferase (ALT) were measured on an automatic analyser (Olympus AU400®) with commercial kits (Olympus Diagnostica GmbH, references OSR6187 and OSR6107, respectively).
In a second series of experiments, plasma lipids were assessed in ob/ob mice fed with a standard diet and receiving or not of 100 mg/kg/day of β-aminoisobutyric acid (BAIBA) in the drinking water during 6 weeks, but at the end of the experiment mice were fasted for only 15 hours (i.e. for an overnight fast). Samples of blood were then collected in controls mice (n=4) and in mice treated with BAIBA (n=5) for the assessment of plasma triglycerides, total cholesterol and HDL-cholesterol. In this experiment, BAIBA decreased plasma triglycerides and total cholesterol by 10 and 8%, respectively. Indeed, plasma triglycerides were 1.35±0.07 and 1.22±0.06 mmol/L, respectively in control and treated ob/ob mice, whereas plasma total cholesterol was 6.78±0.51 and 6.24±0.11 mmol/L, respectively in control and treated mice. […] Indeed, HDL-cholesterol was 4.73±0.31 and 4.92±0.24 mmol/L, respectively in control and treated mice.

[3] = Plasma lipids in ob/ob mice, 6 weeks, 48-hour fast
Description: as §1
Plasma lipids were assessed in ob/ob mice fed with a standard diet and receiving or not β-aminoisobutyric acid (BAIBA) in the drinking water during 6 weeks. These animals (7 controls and 10 treated with BAIBA) were those used for the determination of hepatic lipids (see above, paragraph II-b). At the end of the 6 weeks of treatment, mice were submitted to a 48-hour period of fast. Samples of blood were then collected (from the retroorbital sinus) for the assessment of plasma triglycerides, phospholipids and total cholesterol and mice were subsequently killed for assessment of liver triglycerides (see above). In this experiment, BAIBA decreased by 5, 23 and 19%, respectively plasma triglycerides, phospholipids and total cholesterol. The results are submitted in FIG. 7.

[4] = 100 mg/kg/d 6 weeks, ob/ob 10 to 12-weeks old, fasted 48 hours
[5] = obese mice, standard diet, 6 weeks

For CC(CN)C(=O)O (racemic) [BAIBA, D,L-β-Aminoisobutyric acid], which plasma glucose [1, 4] is on record?
Its plasma glucose is 9.0 ± 0.9 mmol/L.

And the plasma insulin [1, 4]?
Its plasma insulin is 24±6 μU/ml.

And the plasma insulin ([1]; 100 mg/kg/d 6 weeks, ob/ob 10 to 12-weeks old, fed state)?
The plasma insulin was 64±7 μU/ml.

What about the “decrease of the glucose plasma level” value [1, 5] of the same molecule?
Its value is “around 20%”.

And the “decrease of the insulin plasma level” value [1, 5]?
Its value is “around 35%”.

What about the HDL-cholesterol [2] of the same molecule?
The HDL-cholesterol was 4.92 ± 0.24 mmol/L.

And the “decrease of plasma total cholesterol” value [2]?
Its value is 8%.

And the “decrease of plasma triglycerides” value [2]?
The value was 10%.

What about the plasma total cholesterol [2] of the same molecule?
Its plasma total cholesterol is 6.24 ± 0.11 mmol/L.

And the plasma triglycerides [2]?
The plasma triglycerides was 1.22 ± 0.06 mmol/L.

What about the “decrease of plasma phospholipids” value [3] of the same molecule?
Its value is 23%.

What about the “decrease of plasma total cholesterol” value [3] of the same molecule?
Its value is 19%.

And the “decrease of plasma triglycerides” value [3]?
Its value is 5%.

What about the plasma triglycerides [3] of the same molecule?
Its plasma triglycerides is 1.32 ± 0.14 mmol/L.

And the plasma phospholipids ([3]; p<0.01)?
The plasma phospholipids was 4.07 ± 0.26 mmol/L.

What about the plasma total cholesterol ([3]; p<0.05) of the same molecule?
The plasma total cholesterol was 4.98 ± 0.34 mmol/L.

Reference: US20060167098A1, “Method for the treatment of diseases linked to an accumulation of triglycerides and cholesterol” (Institut National De La Sante ET De LA Recherche Medicale …, priority 2003, published 2006)
